Results on seven compounds are retold here after US20060206946A1, “Method of disrupting heme transport in nematodes and of modelling and evaluating eukaryotic heme transport” (priority 2005, published 2006).

Data set [1] concerns C. elegans. Description: Metabolic labeling with 59Fe or 59Fe-heme, heme isolation and TLC. The format is in vivo, Caenorhabditis elegans. The note with it: for radiolabel signal in heme extracted from labeled worms: 9.4×10^6 DPM, mCeHR. The procedure:
(E) Metabolic labeling in C. elegans cultured in the presence of heme. Synchronized L1 larvae were grown in mCeHR medium containing either ^59Fe or ^59Fe-heme (9.4×10^6 DPM) and the worms harvested as gravid adults. Heme was extracted and concentrated, and then resolved by TLC followed by detection with a PhosphorImager (top panel). Lane 5, ^59Fe-heme control. Radiolabeled bands were quantified in a gamma counter and CPM normalized to total protein (bottom panel). To correct for non-specific binding of the radiolabeled Fe and heme, parallel experiments were conducted in the presence of 1 mM sodium azide (samples 1 and 3).
Preparation of hemin, hemin analogs and [^59Fe]Heme. Fresh stock solutions of hemin or hemin analogs (Frontier Sciences, Logan, Utah) were prepared immediately prior to use by dissolving required amounts in 0.3 M ammonium hydroxide. The pH of the stock solution was adjusted to pH 8.0 with 6 N HCl, and filter sterilized ([…]). The upper limit of free iron was estimated to be 3.8 nM/1 μM of hemin chloride by inductively coupled plasma-mass spectrometry (ICP-MS) analysis. For synthesis of ^59Fe-heme, 50 ml of glacial acetic acid was stirred under a constant flow of N2 at 60° C. followed by addition of 12 mg of protoporphyrin IX in pyridine for 30 min. To this mixture, 0.85 μCi of FeCl3 (specific activity 35.77 mCi/mg, Perkin Elmer, Boston, Mass.) was stirred in for an additional 3 h. Heme was extracted from this mixture with ethyl acetate followed by extensive washes with 4 N HCl and distilled water to remove unincorporated protoporphyrin IX and iron. The heme thus obtained was concentrated by evaporation of the ethyl acetate using a RotaVapor and frozen at −20° C. until further use. Total amount of ^59Fe-heme synthesized by this method was measured using a Packard Gamma Counter (˜21% efficiency). The purity of heme was determined by thin layer chromatography using silica gel 60 matrix in an NH4OH-saturated chamber with 2,6-lutidine/water solvent. We estimated the specific activity of ^59Fe-heme synthesized to be ˜2.8×10^6 DPM/nmol.
Metabolic Labeling, Heme Isolation and Thin Layer Chromatography. Equal numbers of L1 worms were grown at 20° C. in mCeHR medium with 20 μM hemin and supplemented with 9.4×10^6 DPM of either ^59Fe-heme or ^59FeCl3. Radiolabeled adult worms were harvested by first incubating them in M9 buffer for 30 min to empty the gut contents. […] It was experimentally determined that this concentration of NaN3 was not lethal to worms. […] Plates were exposed to a PhosphorImager and the radiolabel signal corresponding to heme was excised and analyzed using a gamma counter. Counts (DPM) obtained were normalized for protein as determined by the bicinchoninic acid method (Sigma) performed on pre-aliquoted samples of intact worms. […]

Data set [2] relates to C. elegans wild-type N2 strain. The experiment in a line: Worm culture and growth assay in axenic CeHR/mCeHR liquid medium. It is filed as in vivo. The conditions noted are these: for support of worm growth as heme source: in vivo. The procedure: (D) Biphasic response of C. elegans cultured in the presence of increasing amounts of hemin chloride (μM). Equal numbers of synchronized L1 larvae were grown in 24-well plates in mCeHR medium for 9 days and quantified (worms/μl) by microscopy. Each data point represents the mean±SD from three separate experiments performed in triplicate.
(A) Aerobic growth of C. elegans in mCeFIR medium with 20 μM hemin supplemented with either gallium protoporphyrin IX (GaPP) or gallium salts. Synchronized L1 larvae were grown for 9 days in 24-well plates and quantified (worms/μl) by microscopy. Each data point represents the mean from a single experiment, and each experiment was performed in triplicate. Inset depicts the GaPP analysis at lower concentrations for clarity.
(B) Effect of heme on the cytotoxicity of GaPP. Synchronized L1 larvae were inoculated in 24-well plates containing mCeHR medium with either 0, 2, 4, or 6 μM GaPP and increasing hemin (μM). The number of worms per μl was measured on day 9 and the data are presented as mean±SD.
FIG. 9 depicts worm utilization of heme-iron under iron deprivation. Equal numbers of synchronized L1 larvae were grown in the presence of 4, 20, and 100 μM hemin, either in basal mCeHR medium (set 1), or basal medium lacking exogenous iron (set 2), or as set 2 with 1 μM of the iron chelator ferrozine (set 3), or as set 3 with 486 μM ferrous ammonium sulfate (set 4). These values of ferrozine and iron were empirically determined by performing dose-response experiments and analyzing worm growth. The number of worms per μl was measured on day 9 and the data presented as mean±SD performed in triplicate. P<0.001 between sets 1 and 3.
To qualitatively and quantitatively determine the heme requirement of C. elegans, we assessed growth at various heme concentrations. Equal numbers of L1 larvae were inoculated in CeHR medium with either no cytochrome c and hemin, or with cytochrome c and increasing amounts of hemin (FIG. 4A). The effect of hemin became apparent within 48 hours and by 9 days, the heme-deplete worms were severely growth retarded at the L1/L2 stages. […] However, this stimulatory effect of heme was toxic to worms grown at heme concentrations >750 μM. To quantitatively assess the effect of heme on worms, we counted the number of live worms grown under different concentration of heme using DIC microscopy. […] On the basis of this association between heme and the growth and reproduction of C. elegans, we conclude that the biphasic nature of heme is likely due to the need for heme under heme-deprived conditions to perform essential metabolic functions, and the lethality of heme at high concentrations can be attributed to its cytotoxic activity.
Worm Culture and Growth Assays. Free-living worms were cultured in CeHR axenic liquid medium (Dr. Eric Clegg, Personal Communication). […] CeHR medium was modified (henceforth called mCeHR) to eliminate all sources of exogenously added heme; basal growth medium comprised 20 μM hemin chloride (Frontier Scientific, Logan, Utah) and 150 μM of ferrous ammonium sulfate (Sigma Chemicals). Worm strains were grown in mCeHR medium under aerobic conditions in tissue culture flasks at 20° C. ˜3.7×10^6 worms were routinely obtained after 3.5 to 4 days in a T75 flask with 30 ml basal medium from an initial inoculum of −1.5×10^5 worms. For initial culturing of worms in axenic media, three generations of worms were sequentially bleached (1.1% bleach/0.55 M NaOH) to eliminate any contaminating bacterial carryover from agar plates. In all dose-response experiments, worms were growth synchronized by treating the gravid hermaphrodite worms with bleach to dissolve adult worms. The eggs, resistant to bleach, were liberated from the carcasses and extensively washed with M9 buffer followed by overnight hatching in M9 buffer to synchronize growth. By harvesting at appropriate time intervals, synchronous larval stages and adult staged worms were collected for experimental manipulations. […]

The test system of data set [3] is C. elegans. The format is in vivo, Caenorhabditis elegans. The note with it: in vivo. The procedure: (C) Fluorescent metabolic labeling of worms with either 40 μM hemin (images 1, 4) or 40 μM ZnMP/4 μM hemin (images 2, 3, 5, 6) for 3 h followed by confocal microscopy with a 546 laser (images 1-3) and DIC optics (images 4-6). Arrowheads indicate ZnMP fluorescence accumulation within intestinal cells and developing embryos. For clarity, the boxed image in 2 is magnified in images 3 and 6. (Bar=100 μm).
(D) Worms were incubated with 40 μM ZnMP/4 μM hemin for 16 h followed by a chase with 40 μM hemin. Worms were analyzed by epifluorescence microscopy (TRITC channel) and DIC optics. Experiments were performed either in the absence (images 1-4) or presence (images 5-8) of NaN3 during the chase periods to test for the non-specific loss of ZnMP fluorescence. Photomicrograph 4 is shown at a lower power to depict the complete loss of ZnMP fluorescence. (Bar=100 μm). For (C) and (D), four separate experiments were performed with a minimum of 50 worms per data point per experiment. The data are representative for >90% of worms analyzed.
Because of the nature of the growth curve, we reasoned that heme homeostatis in C. elegans may be regulated in accordance with organismic needs and metabolic demands. […]
Pulse-Chase Analysis. […] At timed intervals, aliquots of worms were removed into the appropriate medium containing 10 mM NaN3 mounted on a slide and immediately analyzed with a 543 He/Ne laser on a Zeiss 410 confocal microscope, or with a Peltier-cooled Retiga 1300 12-bit CCD camera fitted on to a Leica DMIRE2 autofluorescence/DIC microscope. Images were further analyzed with SIMPLEPCI v5.2 Software (Compix, Inc.). […] No loss of fluorescence was observed when labeling experiments were performed in parallel in the presence of 1 mM NaN3 during the chase period and when worms were incubated in medium without hemin. To account for background autouluorescence in C. elegans, the sensor gain of the CCD camera or the laser was set to subtract any fluorescence obtained from control worms incubated in the presence of 40 μM hemin.

As for `[N-]=[N+]=[N-]` [NaN3, sodium azide], the lethality to worms entry in data set [1] (1 mM NaN3) was “not lethal”.

For “hemoglobin: hemoprotein used as heme source for worm growth”, the “support of worm growth as heme source” value in data set [2] was “sustained worm growth”. With `[Cl][59Fe]([Cl])[Cl]` [^59Fe], the “radiolabel signal in heme extracted from labeled worms” value in data set [1] is reported as “no radiolabeled signal”. Turning to `CCC1=C(C)c2cc3[n-]c(cc4[n-]c(cc5nc(cc1n2)C(C)=C5CC)c(C)c4CCC(=O)O)c(CCC(=O)O)c3C.[Zn+2]` [ZnMP, zinc mesoporphyrin IX], in data set [3], the “time to discernable fluorescence signal in embryos” value is no more than 130 min.

Regarding `C=CC1=C(C)c2cc3[n-]c(cc4nc(cc5[n-]c(cc1n2)c(C)c5C=C)C(C)=C4CCC(=O)O)c(CCC(=O)O)c3C.[59Fe+2]` [^59Fe-heme], the “radiolabel signal in heme extracted from labeled worms” value in data set [1] is given as “specific signal”. For the same compound, the “59Fe-heme uptake in metabolically inhibited worms” value in data set [1] (in the presence of NaN3) is listed as “negligible”. Turning to “Cytochrome c: hemoprotein used as heme source for worm growth”, in data set [2], the “support of worm growth as heme source” value was “sustained worm growth”. For `O=S(=O)([O-])c1ccc(-c2nnc(-c3ccccn3)nc2-c2ccc(S(=O)(=O)[O-])cc2)cc1.[Na+].[Na+]` [ferrozine], the “effect on diminution in worm growth under iron deprivation” value in data set [2] (1 μM ferrozine, medium lacking exogenous iron) is “further accentuated”.
